{
  "source": "patent US20240181049A1",
  "about": "“HARNESSING THE POWER OF MICROBIOTA AND METABOLITES FOR THE TREATMENT OF CANCER” (UTI LIMITED PARTNERSHIP, priority 2019, published 2024)",
  "type_in_all_cases": "cell-based, mice",
  "key": {"[1]": {"tested_on": "naïve OVA323-339-specific OT-II CD4^+ T cells", "test": "BMDC / naive OT-II CD4+ T cell co-culture, Th1 differentiation", "settings": "with IFN-γ", "source_text": "(§1) FIG. 4A-4K: Effect of inosine on T cell differentiation and dependency on classical dendritic cells of ICB therapy efficacy. (a) Scatter plot of untargeted metabolomics data in the serum of anti-CTLA-4 treated, tumor-bearing B.p. monocolonized compared to C.sp. monocolonized and germ-free (GF) mice. Grey circles or dotted grey circles depict inosine or inosine fragments/adducts, respectively. […] (c) Naïve CD4^+ T cells were co-cultured with bone marrow derived dendritic cells and IFN-γ. Quantification of T-bet^+CD3ε^+CD4^+ T cells 48 hours after co-culture in the presence or absence of inosine, A2A receptor inhibitor (ZM241385), cell permeable cAMP (db-cAMP) and protein kinase A inhibitor (RP-8-CPT-CAMPS). (d) Same as (c) without IFN-γ. (e) Representative plot and quantification (left and right panel) of phospho-CREB (Ser133) levels in naïve CD4^+ T cells cultured with anti-CD3/anti-CD28 coated beads for 1 hour in the presence or absence of inosine. (f) Schematic overview of experimental setup to deplete classical dendritic cells during MC38 tumor challenge and anti-CTLA-4 treatment. Intratumoral (g) frequency of CD8^+ T cells (h) IFN-γ^+CD8^+ T cells. (i and j) same as (g and h), but CD4^+ T cells and (k) tumor weight at […]. Data are mean±SEM and pooled from two individual experiments (a-b) n=5-8 samples/group (c-e) 10-15 biological replicates/group (f-k) 10 mice/group. *, P<0.05; **, P<0.01; ***, P<0.001; ****, P<0.0001\nBone marrow derived dendritic cells (BMDCs) were generated from flushed bone marrow cells, maintained in RPMI-1640 (Sigma) supplemented with 10% FBS, 50 μm 2-Mercaptoethanol (Sigma) 100 units/ml penicillin, 100 μg/ml streptomycin sulfate and 20 ng/ml rm GM-CSF (R&D). Medium was exchanged after 48 hours and 72 hours. 5 days after culture, a magnetic cell sorting step was performed to enrich for CD11c^+ cells (Miltenyi Biotec). CD11c^+ cells were seeded in 96 flat bottom wells and pulsed with 20 ng/ml OVA323-339 and 100 ng/ml LPS (both Sigma) for 18 hours. In some conditions BMDCs were also cultured with 10 ng/ml rmIFN-γ (R&D).\nNegative selection magnetic cell sorting (Miltenyi Biotec) was used to enrich naïve OT-II CD4^+ T cells. Naïve OT-II CD4^+ T cells were then co-cultured with BMDCs at a ratio of 2:1 or stimulated with anti-CD3/anti-CD28 T cell activation beads (Thermofisher) at a ratio of 1:1 for 48 hours prior to restimulation with PMA/lonomycin in the presence of Brefeldin-A and analysis (see Single cell preparation and flow cytometry for details). In some conditions cells were additionally cultured with various combinations of 2 μg/ml anti-CTLA-4, 100 μM db-cAMP (Sigma), 5 μM ZM 241385 (Sigma), 300 μM Rp-8-CPT-CAMPS (Cayman Chemical) or 2 mM inosine (Sigma) as described previously (He et al., 2017; Yao et al., 2013)."}, "naïve CD4^+ T cells": {"tested_on": "naïve CD4^+ T cells", "test": "Naive CD4+ T cells with anti-CD3/anti-CD28 coated beads", "settings": "levels of adenosine in the serum", "source_text": "as §1\nFIG. 16A-16J: Context dependent effect of inosine on Th1 T cell differentiation. (a) Naïve CD4^+ T cells were co-cultured with bone marrow derived dendritic cells without IFN-γ. Quantification of T-bet^+CD3e^+CD4^+ T cells 48 hours after co-culture in the presence or absence of inosine and anti-CTLA-4, as indicated. (b) Naïve CD4^+ T cells were cultured anti-CD3/anti-CD28 coated beads at a ratio of 1:1 without IFN-γ for 48 hours. Representative plot and quantification of IL12Rβ2 surface expression on CD4^+ T cells in the presence or absence of inosine (left and right panel). (c) Quantification of T-bet^+CD3e^+CD4^+ T cells 48 hours after co-culture in the presence or absence of inosine, db-cAMP and anti-CTLA-4 as indicated. (d) Naïve, A2AR-deficient CD4^+ T cells were cultured with anti-CD3/anti-CD28 coated beads at a ratio of 1:1 without IFN-γ. Quantification of T-bet^+CD3e^+CD4^+ T cells 48 hours after co-culture in the presence or absence of inosine or db-cAMP (e) Representative plot and quantification (left and right panel) of pCREB expression of anti-CD3/anti-CD28 bead co-cultured CD4^+ T cells in the presence or absence of inosine or db-cAMP 1 hour after stimulation. Analysis through flow cytometry. (f and g) Naïve, wild type CD4^+ T cells were cultured with anti-CD3/anti-CD28 coated beads at a ratio of 1:1. Il12rb2 and Ifng gene transcripts (normalized to Gapdh) were evaluated 24 and 48 hours following inosine (1 mM) stimulation. Expression was normalized to cells treated with medium. Analysis through quantitative PCR assay (h) Naïve CD4^+ T cells were cultured with anti-CD3/anti-CD28 coated beads at a ratio of 1:1 without IFN-γ for 24 hours. Then inosine or vehicle was added at the indicated concentrations for another 48 hours before T cell differentiation and activation was assessed. (i) Adenosine concentrations in the duodenal-, jejunal- or cecal content of B.p. monocolonized mice and in the serum of B.p. or C.sp. monocolonized anti-CTLA-4 treated mice. (j) Naïve CD4^+ T cells were cultured with anti-CD3/anti-CD28 coated beads at a ratio of 1:1 without IFN-γ for 24 hours. Adenosine or was added then in the indicated concentrations for another 48 hours followed by T cell differentiation and activation was assessed through flow cytometry. […]"}, "[2]": {"tested_on": "A2AR-deficient CD4^+ T cells", "test": "A2AR-deficient naive CD4+ T cells with anti-CD3/anti-CD28 coated beads", "method": "FIG. 16A-16J: Context dependent effect of inosine on Th1 T cell differentiation. (a) Naïve CD4^+ T cells were co-cultured with bone marrow derived dendritic cells without IFN-γ. Quantification of T-bet^+CD3e^+CD4^+ T cells 48 hours after co-culture in the presence or absence of inosine and anti-CTLA-4, as indicated. (b) Naïve CD4^+ T cells were cultured anti-CD3/anti-CD28 coated beads at a ratio of 1:1 without IFN-γ for 48 hours. Representative plot and quantification of IL12Rβ2 surface expression on CD4^+ T cells in the presence or absence of inosine (left and right panel). (c) Quantification of T-bet^+CD3e^+CD4^+ T cells 48 hours after co-culture in the presence or absence of inosine, db-cAMP and anti-CTLA-4 as indicated. […] Quantification of T-bet^+CD3e^+CD4^+ T cells 48 hours after co-culture in the presence or absence of inosine or db-cAMP (e) Representative plot and quantification (left and right panel) of pCREB expression of anti-CD3/anti-CD28 bead co-cultured CD4^+ T cells in the presence or absence of inosine or db-cAMP 1 hour after stimulation. […] Il12rb2 and Ifng gene transcripts (normalized to Gapdh) were evaluated 24 and 48 hours following inosine (1 mM) stimulation. […] Analysis through quantitative PCR assay (h) Naïve CD4^+ T cells were cultured with anti-CD3/anti-CD28 coated beads at a ratio of 1:1 without IFN-γ for 24 hours. […]"}},
  "data": [
    {"compound": "Nc1nc(NCCc2ccc(O)cc2)nc2nc(-c3ccco3)nn12", "note": "[ZM241385, reference compound]", "values": [
      {"measurement": "effect of inosine on Th1 differentiation", "setting": "[1]; inhibitor added (5 μM ZM 241385; 300 μM Rp-8-CPT-CAMPS)", "result": "completely abrogated the effect of inosine"}
    ]},
    {"compound": "Nc1ncnc2c1ncn2[C@@H]1O[C@H](CO)[C@@H](O)[C@H]1O", "note": "[adenosine, reference compound]", "values": [
      {"measurement": "Th1 activation and effector function, adenosine dose response", "setting": "naïve CD4^+ T cells", "result": "insufficient to promote Th1 activation and effector function"}
    ]},
    {"compound": "CCCC(=O)Nc1ncnc2c1ncn2[C@@H]1O[C@@H]2COP(=O)(O)O[C@H]2[C@H]1OC(=O)CCC", "note": "[db-CAMP, reference compound]", "values": [
      {"measurement": "Th1 differentiation", "setting": "[1]; 100 μM db-cAMP", "result": "restored Th1 differentiation and bypassed the need for inosine"},
      {"measurement": "Th1 differentiation and phosphorylation of CREB", "setting": "[2]", "result": "increased Th1 differentiation and phosphorylation of CREB in A2AR-deficient T cells"}
    ]}
  ]
}
